Reference: patent US20150141435A1, “2-PYRIDONE ANTIMICROBIAL COMPOSITIONS” (Emergent BioSolutions, priority 2010, published 2015)
Converted amounts (≈) assume the structure as drawn. Structures can show the parent of a compound that is named as a salt. Where two headings read alike, the source gives them in different places.

Tests used:
Type in all cases: cell-based
S. aureus ATCC 25923 = assay: MIC, CLSI broth microdilution (Table 1); conditions: Staphylococcus aureus
[1] = system: S. aureus ATCC 43300 (MRSA, FQ-S); assay: MIC, CLSI broth microdilution (Table 1); conditions: Staphylococcus aureus, read-out: MIC S. aureus ATCC 43300 (MRSA, FQ-S)
[2] = system: S. aureus BAA-1720 (MRSA, FQ-R); assay: MIC, CLSI broth microdilution (Table 1); conditions: Staphylococcus aureus, read-out: MIC S. aureus BAA-1720 (MRSA, FQ-R)
E. faecium ATCC 19434 = assay: MIC, CLSI broth microdilution (Table 1); conditions: Enterococcus faecium
E. faecalis ATCC 29212 = assay: MIC, CLSI broth microdilution (Table 1); conditions: Enterococcus faecalis
S. pneumonia ATCC 49619 = assay: MIC, CLSI broth microdilution (Table 1); conditions: Streptococcus pneumoniae
E. coli ATCC 25922 = assay: MIC, CLSI broth microdilution (Table 2); conditions: Escherichia coli
A. baumannii ATCC 19606 = assay: MIC, CLSI broth microdilution (Table 2); conditions: Acinetobacter baumannii
K. pneumoniae ATCC 33495 = assay: MIC, CLSI broth microdilution (Table 2); conditions: Klebsiella pneumoniae
H. influenzae ATCC 49247 = assay: MIC, CLSI broth microdilution (Table 2); conditions: Haemophilus influenzae
[3] = system: S. maltophilia ATCC 17677; assay: MIC, CLSI broth microdilution (Table 2); conditions: Stenotrophomonas maltophilia
[4] = system: Bacillus anthracis Ames strain; assay: microbe, parasite or virus in culture
[5] = system: Brucella abortus ATCC 23448; assay: microbe, parasite or virus in culture; conditions: ATCC23448
[6] = system: Burkholderia mallei ATCC 23344; assay: microbe, parasite or virus in culture; conditions: ATCC23344
[7] = system: Burkholderia pseudomallei ATCC 23343; assay: microbe, parasite or virus in culture; conditions: ATCC23343
[8] = system: Francisella tularensis Schu S4; assay: microbe, parasite or virus in culture; conditions: SCHUS4
Yersinia pestis C092 = assay: microbe, parasite or virus in culture
P. aeruginosa ATCC 27853 = assay: MIC, CLSI broth microdilution (Table 2); conditions: Pseudomonas aeruginosa
[9] = ATCC25923, read-out: MIC S. aureus ATCC 25923
[10] = ATCC19434, read-out: MIC E. faecium ATCC 19434
[11] = ATCC29212, read-out: MIC E. faecalis ATCC 29212
[12] = ATCC49619, read-out: MIC S. pneumonia ATCC 49619
[13] = ATCC25922, read-out: MIC E. coli ATCC 25922
[14] = ATCC19606, read-out: MIC A. baumannii B. ATCC 19606
[15] = ATCC33495, read-out: MIC K. pneumoniae ATCC 33495
[16] = ATCC49247, read-out: MIC H. influenzae ATCC 49247
[17] = ATCC17677, read-out: MIC S. maltophilia ATCC 17677
[18] = ATCC25923, Gram positive, MHB, 37° C., 16-20 hours, read-out: MIC S. aureus ATCC 25923
[19] = Gram positive, MHB, 37° C., 16-20 hours
[20] = ATCC19434, Gram positive, MHB, 37° C., 16-20 hours, read-out: MIC E. faecium ATCC 19434
[21] = ATCC29212, Gram positive, MHB, 37° C., 16-20 hours, read-out: MIC E. faecalis ATCC 29212
[22] = ATCC49619, Gram positive, MHB, 37° C., 16-20 hours, read-out: MIC S. pneumonia ATCC 49619
[23] = ATCC19606, Gram negative, MHB, 37° C., 16-20 hours, read-out: MIC A. baumannii B. ATCC 19606
[24] = ATCC27853, Gram negative, MHB, 37° C., 16-20 hours, read-out: MIC P. aeruginosa ATCC 27853
[25] = ATCC33495, Gram negative, MHB, 37° C., 16-20 hours, read-out: MIC K. pneumoniae ATCC 33495
[26] = ATCC49247, Gram negative, MHB, 37° C., 16-20 hours, read-out: MIC H. influenzae ATCC 49247
[27] = ATCC17677, Gram negative, MHB, 37° C., 16-20 hours, read-out: MIC S. maltophilia ATCC 17677
[28] = ATCC25922, Gram negative, MHB, 37° C., 16-20 hours, read-out: MIC E. coli ATCC 25922

| Structure (SMILES) | MIC (S. pneumonia ATCC 49619; [12]) [µg/mL] | MIC (E. coli ATCC 25922; [13]) [µg/mL] | MIC [4] [µg/mL] | MIC [5] [µg/mL] | MIC [6] [µg/mL] | MIC [7] [µg/mL] | MIC [8] [µg/mL] | MIC (Yersinia pestis C092) [µg/mL] | MIC (S. aureus ATCC 25923; [18]) [µg/mL] | MIC [1, 19] [µg/mL] | MIC [2, 19] [µg/mL] | MIC (E. faecium ATCC 19434; [20]) [µg/mL] | MIC (E. faecalis ATCC 29212; [21]) [µg/mL] | MIC (S. pneumonia ATCC 49619; [22]) [µg/mL] | MIC (A. baumannii ATCC 19606; [23]) [µg/mL] | MIC (P. aeruginosa ATCC 27853; [24]) [µg/mL] | MIC (K. pneumoniae ATCC 33495; [25]) [µg/mL] | MIC (H. influenzae ATCC 49247; [26]) [µg/mL] | MIC [3, 27] [µg/mL] | MIC (E. coli ATCC 25922; [28]) [µg/mL] | further results |
| --- | --- | --- | --- | --- | --- | --- | --- | --- | --- | --- | --- | --- | --- | --- | --- | --- | --- | --- | --- | --- | --- |
| Cc1c(-c2ccc(N)c(F)c2)c(F)cn2c(=O)c(C(=O)O)cc(C3CC3)c12 [Example 1 K salt, 8-(4-amino-3-fluoro-phenyl)-1-cyclopropyl-7-fluoro-9-methyl-4-oxo-4H-quinolizine-3-carboxylic acid] | 0.016 | 0.032 to 0.064 | 0.004 | 0.031 | 0.25 to 0.5 | 0.5 | 0.016 | 0.031 |  |  |  |  |  |  |  |  |  |  |  |  | MIC (S. aureus ATCC 25923; [9]): ≤ 0.004 µg/mL; MIC [1]: ≤ 0.004 µg/mL; MIC [2]: 0.125 µg/mL; MIC (E. faecium ATCC 19434; [10]): 0.25 µg/mL; MIC (E. faecalis ATCC 29212; [11]): 0.008 µg/mL; MIC (A. baumannii ATCC 19606; [14]): 0.064 µg/mL; MIC (K. pneumoniae ATCC 33495; [15]): 0.125 µg/mL; MIC (H. influenzae ATCC 49247; [16]): ≤ 0.004 µg/mL; MIC [3, 17]: 0.125 µg/mL |
| Cc1c(-c2ccc(N)c(F)c2)ccn2c(=O)c(C(=O)O)cc(C3CC3)c12 [Example 2 K salt, 8-(4-amino-3-fluoro-phenyl)-1-cyclopropyl-9-methyl-4-oxo-4H-quinolizine-3-carboxylic acid] | 0.032 | 0.032 | 0.004 | 0.016 to 0.031 | 0.063 | 0.063 | 0.016 | 0.031 |  |  |  |  |  |  |  |  |  |  |  |  | MIC (S. aureus ATCC 25923; [9]): ≤ 0.004 µg/mL; MIC [1]: 0.004 µg/mL; MIC [2]: 0.125 µg/mL; MIC (E. faecium ATCC 19434; [10]): 0.25 µg/mL; MIC (E. faecalis ATCC 29212; [11]): 0.016 µg/mL; MIC (A. baumannii ATCC 19606; [14]): 0.125 µg/mL; MIC (P. aeruginosa ATCC 27853; ATCC27853, read-out: MIC P. aeruginosa ATCC 27853): 1 µg/mL; MIC (K. pneumoniae ATCC 33495; [15]): 0.125 µg/mL; MIC (H. influenzae ATCC 49247; [16]): ≤ 0.004 µg/mL; MIC [3, 17]: 0.125 µg/mL |
| Cc1c(-c2cccc(N)c2)ccn2c(=O)c(C(=O)O)cc(C3CC3)c12 [Example 3 K salt, 8-(3-amino-phenyl)-1-cyclopropyl-9-methyl-4-oxo-4H-quinolizine-3-carboxylic acid] |  | 0.064 to 0.125 | 0.008 | 0.125 | 0.5 to 1 | 0.25 | 0.031 | 0.031 to 0.063 | 0.016 | 0.016 | 0.5 | 1 | 0.064 | 0.25 | 0.25 | 2 | 0.25 | 0.016 | 0.25 |  |  |
| Cc1c(-c2ccc(F)c(N)c2)ccn2c(=O)c(C(=O)O)cc(C3CC3)c12 [Example 8 K salt, 8-(3-amino-4-fluoro-phenyl)-1-cyclopropyl-9-methyl-4-oxo-4H-quinolizine-3-carboxylic acid] | 0.125 |  | 0.008 | 0.063 | 0.25 | 0.125 | 0.031 | 0.031 | 0.008 | 0.008 | 0.25 | 0.5 | 0.032 |  |  | 2 |  | 0.064 |  | 0.032 to 0.064 | MIC (A. baumannii ATCC 19606; [14]): 0.064 to 0.125 µg/mL; MIC (K. pneumoniae ATCC 33495; [15]): 0.125 µg/mL; MIC [3, 17]: 0.125 µg/mL |
| Cc1c(-c2ccncc2)ccn2c(=O)c(C(=O)O)cc(C3CC3)c12 [Example 16 K salt, 1-cyclopropyl-9-methyl-4-oxo-8-(pyridin-4-yl)-4H-quinolizine-3-carboxylic acid] | 0.125 | 0.032 | 0.016 | 0.063 | 0.125 | 0.125 | 0.016 to 0.031 | 0.031 |  |  |  |  |  |  |  |  |  |  |  |  | MIC (S. aureus ATCC 25923; [9]): 0.016 µg/mL; MIC [1]: 0.016 µg/mL; MIC [2]: 0.5 to 1 µg/mL; MIC (E. faecalis ATCC 29212; [11]): 0.064 µg/mL; MIC (A. baumannii ATCC 19606; [14]): 0.125 µg/mL; MIC (K. pneumoniae ATCC 33495; [15]): 0.125 µg/mL; MIC (H. influenzae ATCC 49247; [16]): ≤ 0.004 µg/mL; MIC [3, 17]: 0.125 µg/mL |
| Cc1c(-c2ccc(C#N)c(F)c2)ccn2c(=O)c(C(=O)O)cc(C3CC3)c12 [Example 40 K salt, 8-(4-cyano-3-fluoro-phenyl)-1-cyclopropyl-9-methyl-4-oxo-4H-quinolizine-3-carboxylic acid] |  |  |  |  |  |  |  |  | 0.016 | 0.016 | 0.5 to 1 | 2 | 0.064 | 0.125 | 0.25 | > 8 | 0.5 to 1 | 0.016 | 0.25 | 0.125 to 0.25 |  |
| Cc1c(-c2ccc(C(=O)O)cc2)c(F)cn2c(=O)c(C(=O)O)cc(C3CC3)c12 [Example 41 K salt, 8-(4-carboxy-phenyl)-1-cyclopropyl-7-fluoro-9-methyl-4-oxo-4H-quinolizine-3-carboxylic acid] |  |  |  |  |  |  |  |  | 2 | 0.25 | > 8 | > 8 | 0.25 | 0.5 to 1 | > 8 | > 8 | > 8 | 0.032 | > 8 | > 8 |  |
| Cc1c(-c2cc[nH]c2)ccn2c(=O)c(C(=O)O)cc(C3CC3)c12 [Example 43 K salt, 1-cyclopropyl-9-methyl-4-oxo-8-(1H-pyrrol-3-yl)-4H-quinolizine-3-carboxylic acid] |  |  |  |  |  |  |  |  | 0.016 to 0.032 | 0.032 | 2 | 4 | 0.125 | 0.5 | 0.25 | 4 | 0.125 | 0.008 | 0.25 | 0.064 to 0.125 |  |
| Cc1c(-c2ccc(F)cc2)ccn2c(=O)c(C(=O)O)cc(C3CC3)c12 [Example 44 K salt, 1-cyclopropyl-8-(4-fluoro-phenyl)-9-methyl-4-oxo-4H-quinolizine-3-carboxylic acid] |  |  |  |  |  |  |  |  | 0.016 | 0.016 | 0.5 | 0.5 | 0.064 | 0.25 | 0.125 to 0.25 | 2 | 0.25 | 0.008 | 0.25 | 0.125 |  |
| COc1ccc(-c2ccn3c(=O)c(C(=O)O)cc(C4CC4)c3c2C)cc1 [Example 47 K salt, 1-cyclopropyl-8-(4-methoxy-phenyl)-9-methyl-4-oxo-4H-quinolizine-3-carboxylic acid] |  |  |  |  |  |  |  |  | 0.016 | 0.016 | 0.5 to 1 | 1 | 0.032 to 0.064 | 0.25 | 0.5 | 4 | 1 to 2 | 0.032 | 0.5 | 0.25 |  |
| COc1c(N2C[C@@H]3CCCN[C@@H]3C2)c(F)cc2c(=O)c(C(=O)O)cn(C3CC3)c12 [Moxyfloxacin, reference compound] |  |  |  |  |  |  |  |  | 0.064 (≈ 0.159 µM) | 0.064 (≈ 0.159 µM) | 4 (≈ 9.96 µM) | 4 (≈ 9.96 µM) | 0.25 (≈ 0.623 µM) | 0.125 (≈ 0.311 µM) | 0.5 (≈ 1.25 µM) | 2 (≈ 4.98 µM) | 0.125 (≈ 0.311 µM) | 0.032 (≈ 0.0797 µM) | 0.125 (≈ 0.311 µM) | 0.032 (≈ 0.0797 µM) |  |
